This passage reports Kd results from article PMC3289994 (Archives of Biochemistry and Biophysics, 2012).

For test [1], the target named is human serum albumin (HSA) (Homo sapiens, UniProt P02768). Description: SPR equilibrium binding of carotenoids to immobilized HSA.
A further test addresses T1, β-lactoglobulin (LG) (Bos taurus, UniProt P02754).
T1 sequence (P02754 17-178): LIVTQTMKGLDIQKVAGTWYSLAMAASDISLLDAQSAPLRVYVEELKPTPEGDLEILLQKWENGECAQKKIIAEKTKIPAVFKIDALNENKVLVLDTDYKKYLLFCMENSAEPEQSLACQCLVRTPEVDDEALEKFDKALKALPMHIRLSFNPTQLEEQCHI
Description: SPR equilibrium binding of carotenoids to immobilized LG.

For test [2], the target named is T2, StARD1 protein binding domain (residues 63–285) (Homo sapiens, UniProt P49675).
T2 sequence (P49675 63-285): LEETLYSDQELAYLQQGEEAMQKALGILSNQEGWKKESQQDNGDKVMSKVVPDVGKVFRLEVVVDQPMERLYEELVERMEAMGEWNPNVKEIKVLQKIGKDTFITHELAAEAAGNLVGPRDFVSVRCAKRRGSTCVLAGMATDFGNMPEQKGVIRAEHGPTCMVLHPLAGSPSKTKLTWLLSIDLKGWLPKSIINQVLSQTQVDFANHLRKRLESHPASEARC
Description: FastStep SPR equilibrium binding of carotenoids to immobilized StARD1.

Chain of human serum albumin (HSA) (P02768 25-609): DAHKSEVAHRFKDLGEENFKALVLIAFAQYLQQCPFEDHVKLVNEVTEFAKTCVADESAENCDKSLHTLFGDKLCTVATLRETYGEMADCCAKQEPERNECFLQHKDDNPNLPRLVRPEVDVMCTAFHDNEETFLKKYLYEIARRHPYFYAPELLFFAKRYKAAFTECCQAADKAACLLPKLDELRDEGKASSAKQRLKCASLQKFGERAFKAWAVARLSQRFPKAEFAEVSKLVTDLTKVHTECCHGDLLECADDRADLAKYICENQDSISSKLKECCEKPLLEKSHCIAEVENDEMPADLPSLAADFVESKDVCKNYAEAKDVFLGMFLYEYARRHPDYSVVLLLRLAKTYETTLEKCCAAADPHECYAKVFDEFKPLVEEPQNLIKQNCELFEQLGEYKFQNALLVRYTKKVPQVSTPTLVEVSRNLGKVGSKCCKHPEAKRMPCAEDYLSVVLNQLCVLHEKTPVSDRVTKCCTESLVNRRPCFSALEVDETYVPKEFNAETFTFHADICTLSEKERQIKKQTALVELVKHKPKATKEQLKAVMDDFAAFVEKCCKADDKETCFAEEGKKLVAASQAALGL

Take `CC1=C(/C=C/C(C)=C/C=C/C(C)=C/C=C/C=C(C)/C=C/C=C(C)/C=C/C2=C(C)C[C@@H](O)CC2(C)C)C(C)(C)C[C@H](O)C1` [Zeaxanthin, (3R, 3′R)-zeaxanthin]: the figures for the Kd (in test [1]; on β-lactoglobulin (LG); in test [2]) were 1600 ± 50 nM, 2300 ± 20 nM and 1320 ± 90 nM, respectively.

`CC1=C[C@H](O)CC(C)(C)[C@H]1/C=C/C(C)=C/C=C/C(C)=C/C=C/C=C(C)/C=C/C=C(C)/C=C/C1=C(C)C[C@@H](O)CC1(C)C` [Lutein, (3R, 3′R, 6′R)-lutein]: the Kd amounted to 1160 ± 40 nM in test [1], 2480 ± 80 nM on β-lactoglobulin (LG) and 1150 ± 60 nM in test [2].

Regarding `CC1=C(/C=C/C(C)=C/C=C/C(C)=C/C=C/C=C(C)/C=C/C=C(C)/C=C/C2=C(C)C(=O)[C@@H](O)CC2(C)C)C(C)(C)C[C@H](O)C1=O` [Astaxanthin, (3S, 3′S)-astaxanthin], the Kd in test [1] is 1560 ± 30 nM; on β-lactoglobulin (LG) it was 1900 ± 50 nM; in test [2] it was 1960 ± 90 nM.

On to `CC1=C(/C=C/C(C)=C/C=C/C(C)=C/C=C/C=C(C)/C=C/C=C(C)/C=C/C2=C(C)CCCC2(C)C)C(C)(C)CCC1` [β-Carotene], for which the results for the Kd (in test [1]; at β-lactoglobulin (LG); in test [2]) were 1530 ± 20 nM, 2400 ± 50 nM and 1790 ± 80 nM, respectively.

By Kd is commonly meant the equilibrium constant for the complex coming apart. Higher therefore signals lower affinity.
